These results are taken from patent US20260265195A1, “SARM1 MODULATORS, PREPARATIONS, AND USES THEREOF” (SIRONAX LTD, priority 2022, published 2026).

The assay concerns the target T1, SARM1 (50-724) (Homo sapiens, UniProt Q6SZW1).
T1 construct: Purified SARM1 (50-724) with a final concentration of 2 nM
T1 sequence (Q6SZW1 50-724): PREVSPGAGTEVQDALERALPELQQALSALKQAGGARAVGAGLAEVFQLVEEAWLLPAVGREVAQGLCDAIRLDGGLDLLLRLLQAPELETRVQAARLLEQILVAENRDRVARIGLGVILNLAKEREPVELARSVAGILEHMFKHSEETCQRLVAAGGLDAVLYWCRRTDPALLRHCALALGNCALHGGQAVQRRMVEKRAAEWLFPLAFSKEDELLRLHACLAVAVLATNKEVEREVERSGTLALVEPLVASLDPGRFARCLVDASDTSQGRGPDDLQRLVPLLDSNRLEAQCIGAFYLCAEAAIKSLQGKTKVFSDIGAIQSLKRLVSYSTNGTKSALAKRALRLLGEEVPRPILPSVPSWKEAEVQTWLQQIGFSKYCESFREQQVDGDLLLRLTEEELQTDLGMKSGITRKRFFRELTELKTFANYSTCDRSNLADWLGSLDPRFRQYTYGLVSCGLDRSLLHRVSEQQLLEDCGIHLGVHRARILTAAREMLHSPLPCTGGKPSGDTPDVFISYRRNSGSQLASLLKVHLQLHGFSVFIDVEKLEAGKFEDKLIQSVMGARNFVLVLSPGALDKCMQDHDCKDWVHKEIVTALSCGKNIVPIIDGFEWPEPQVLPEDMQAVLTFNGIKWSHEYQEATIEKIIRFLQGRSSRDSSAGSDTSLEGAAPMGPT
Kind of assay: SARM1 (50-724) enzymatic assay (NMN-activated NAD+ hydrolysis, LC-MS/MS readout). Format: biochemical. The following applies: purified SARM1 (50-724) 2 nM, 200 μM NMN activator, 100 μM NAD+ substrate, 1 h at room temperature, read-out: IC50 (SARM1 inhibitory activity). The gist of the method:
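Purified human SARM1 (50-724), 2 nM final in DPBS, pre-incubated 15 min at RT with compound (1% DMSO), then started with 200 μM NMN activator and 100 μM NAD+. After 1 h at RT, quenched with 70% acetonitrile; analysed by LC-MS/MS.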
What is called IC50 is the concentration at which inhibition is half-maximal. Take `COC(=O)C(C)(C)c1ccc2[nH]c(C(=O)N(CC3(F)COC3)c3cccc(Cl)c3Cl)nc2c1` [Compound 204]: the IC50 was not above 100 nM. The same measure for `CC(C)(CO)c1ccc2[nH]c(C(=O)N(CC3(F)COC3)c3cccc(Cl)c3Cl)nc2c1` [Compound 205]: not above 100 nM; for `O=C(c1nc2cc(C(F)(F)F)cc(F)c2[nH]1)N(CCO)c1cccc(Cl)c1Cl` [Compound 206]: not above 100 nM. The same measure for `COc1ccc(Cl)c(N(CC(F)(F)CO)C(=O)c2nc3cc(C(F)(F)F)ccc3[nH]2)n1` [Compound 207, N-(3-chloro-6-methoxypyridin-2-yI)-N-(2,2-difluoro-3-hydroxypropyl)-5-(trifluoromethyl)-1H-benzo[d]imidazole-2-carboxamide]: 101 to 500 nM; for `CC(C)(C#N)c1ccc2[nH]c(C(=O)N(CC(F)(F)CO)c3ccc(F)c(F)c3Cl)nc2c1` [Compound 208]: not above 100 nM. The same measure for `CCOC(=O)C(F)(F)CN(C(=O)c1nc2cc(C3CC3)ccc2[nH]1)c1cccc(F)c1Cl` [Compound 209]: not above 100 nM. Take `O=C(c1nc2cc(C3CC3)ccc2[nH]1)N(CC(F)(F)CO)c1cccc(F)c1Cl` [Compound 210]: the IC50 is not above 100 nM.

For `O=C(c1nc2cc(C(F)(F)F)cc(F)c2[nH]1)N(CC(F)(F)CO)c1cccc(F)c1Cl` [Compound 211], the IC50 is not above 100 nM. The figure for `O=C(c1nc2cc(C(F)(F)F)ccc2[nH]1)N(CC(F)(F)CO)c1ccc(F)c(F)c1Cl` [Compound 212, N-(2-chloro-3,4-difluorophenyl)-N-(2,2-difluoro-3-hydroxypropyl)-5-(trifluoromethyl)-1H-benzo[d]imidazole-2-carboxamide] is not above 100 nM; for `O=C(c1nc2cc(C(F)(F)F)ccc2[nH]1)N(CCN1CCOCC1)c1cccc(F)c1Cl` [Compound 214, N-(2-chloro-3-fluorophenyl)-N-(2-morpholinoethyl)-5-(trifluoromethyl)-1H-benzo[d]imidazole-2-carboxamide] it is 101 to 500 nM. The same measure for `O=C(c1nc2cc(C(F)(F)F)ccc2[nH]1)N(CC(F)(F)CO)c1ccc(F)cc1Cl` [Compound 216, N-(2-chloro-4-fluorophenyl)-N-(2,2-difluoro-3-hydroxypropyl)-5-(trifluoromethyl)-1H-benzo[d]imidazole-2-carboxamide]: not above 100 nM; for `O=C(c1nc2cc(C(F)(F)F)ccc2[nH]1)N(CC(F)(F)CO)c1cc(F)cc(F)c1Cl` [Compound 218, N-(2-chloro-3,5-difluorophenyl)-N-(2,2-difluoro-3-hydroxypropyl)-5-(trifluoromethyl)-1H-benzo[d]imidazole-2-carboxamide]: not above 100 nM.

As to `O=C(c1nc2cc(C(F)(F)F)ccc2[nH]1)N(CC(F)(F)CO)c1cc(F)ccc1Cl` [Compound 219, N-(2-chloro-5-fluorophenyl)-N-(2,2-difluoro-3-hydroxypropyl)-5-(trifluoromethyl)-1H-benzo[d]imidazole-2-carboxamide], the IC50 fell in the range of 101 to 500 nM. The same measure for `O=C(c1nc2cc(C(F)(F)F)ccc2[nH]1)N(CC(F)(F)CO)c1cc(F)c(F)cc1Cl` [Compound 220, N-(2-chloro-4,5-difluorophenyl)-N-(2,2-difluoro-3-hydroxypropyl)-5-(trifluoromethyl)-1H-benzo[d]imidazole-2-carboxamide]: 101 to 500 nM. For the molecule `CC(C)(C)c1ccc2[nH]c(C(=O)N(CC3(F)COC3)c3[nH]c(=O)ccc3Cl)nc2c1` [Compound 221, 5-(tert-butyl)-N-(3-chloro-6-oxo-1,6-dihydropyridin-2-yl)-N-((3-fluorooxetan-3-yl)methyl)-1H-benzo[d]imidazole-2-carboxamide], the IC50 is not above 100 nM. The same measure for `O=C(c1nc2cc(C3CC3)ccc2[nH]1)N(CC(F)(F)CO)c1ccc(F)c(F)c1Cl` [Compound 222]: not above 100 nM; for `CC1(c2ccc3[nH]c(C(=O)N(CC(F)(F)CO)c4cccc(F)c4Cl)nc3c2)COC1` [Compound 223, N-(2-chloro-3-fluorophenyl)-N-(2,2-difluoro-3-hydroxypropyl)-5-(3-methyloxetan-3-yl)-1H-benzo[d]imidazole-2-carboxamide]: not above 100 nM; for `CS(=N)(=O)CCCN(C(=O)c1nc2cc(C(F)(F)F)ccc2[nH]1)c1cccc(F)c1Cl` (stereo not drawn) [Compound 224, N-(2-chloro-3-fluorophenyl)-N-(3-(S-methylsulfonimidoyl)propyl)-5-(trifluoromethyl)-1H-benzo[d]imidazole-2-carboxamide]: not above 100 nM. The same measure for `CN=S(C)(=O)CCCN(C(=O)c1nc2cc(C(F)(F)F)ccc2[nH]1)c1cccc(F)c1Cl` (stereo not drawn) [Compound 225, N-(2-chloro-3-fluorophenyl)-N-(3-(N,S-dimethylsulfonimidoyl)propyl)-5-(trifluoromethyl)-1H-benzo[d]imidazole-2-carboxamide]: not above 100 nM; for `CS(=O)(=O)CCCN(C(=O)c1nc2cc(C(F)(F)F)ccc2[nH]1)c1cccc(F)c1Br` [Compound 227, N-(2-bromo-3-fluorophenyl)-N-(3-(methylsulfonyl)propyl)-5-(trifluoromethyl)-1H-benzo[d]imidazole-2-carboxamide]: not above 100 nM. The figure for `CS(=O)(=O)CCN(C(=O)c1nc2cc(C(F)(F)F)ccc2[nH]1)c1cccc(F)c1Cl` [Compound 229, N-(2-chloro-3-fluorophenyl)-N-(2-(methylsulfonyl)ethyl)-5-(trifluoromethyl)-1H-benzo[d]imidazole-2-carboxamide] is not above 100 nM. Take `NC(=O)C(F)(F)CN(C(=O)c1nc2cc(Cl)cc(F)c2[nH]1)c1ccc(F)c(F)c1Cl` [Compound 231]: the IC50 is not above 100 nM. The figure for `O=C(c1nc2cc(Cl)cc(F)c2[nH]1)N(CC(F)(F)CO)c1cccc(F)c1Cl` [Compound 232, 5-chloro-N-(2-chloro-3-fluorophenyl)-N-(2,2-difluoro-3-hydroxypropyl)-7-fluoro-1H-benzo[d]imidazole-2-carboxamide] is not above 100 nM; for `O=C(c1nc2cc(Cl)cc(F)c2[nH]1)N(CC(F)(F)CO)c1ccc(F)c(F)c1Cl` [Compound 233] it is not above 100 nM. `NC(=O)C(F)(F)CN(C(=O)c1nc2cc(Cl)cc(F)c2[nH]1)c1cccc(F)c1Cl` [Compound 234]: the 50% inhibitory concentration (IC50) was not above 100 nM. The same measure for `O=C(c1nc2cc(Cl)cc(Cl)c2[nH]1)N(CC(F)(F)CO)c1cccc(F)c1Cl` [Compound 235]: 101 to 500 nM. As to `O=C(c1nc2c(F)c(Cl)ccc2[nH]1)N(CC(F)(F)CO)c1cccc(F)c1Cl` [Compound 236], the IC50 is not above 100 nM. The figure for `CN(C(=O)c1nc2cc(C(F)(F)F)ccc2[nH]1)c1ccncc1OC(F)(F)F` [Compound 237, N-methyl-N-(3-(trifluoromethoxy)pyridin-4-yl)-5-(trifluoromethyl)-1H-benzo[d]imidazole-2-carboxamide] is 501 to 1000 nM; for `CC1(O)CC(N(C(=O)c2nc3cc(C(F)(F)F)ccc3[nH]2)c2cccc(F)c2Cl)C1` (stereo not drawn) [Compound 239, N-(2-chloro-3-fluorophenyl)-N-(3-hydroxy-3-methylcyclobutyl)-5-(trifluoromethyl)-1H-benzo[d]imidazole-2-carboxamide] it is 101 to 500 nM; for `Cc1c(F)cncc1N(CCO)C(=O)c1nc2cc(C(F)(F)F)ccc2[nH]1` [compound 169] it is 101 to 500 nM.
